Assay results from US20250228818A1, “PHARMACEUTICAL COMBINATION CONTAINING CAPSID PROTEIN INHIBITOR AND REVERSE TRANSCRIPTASE INHIBITOR” (priority 2021, published 2025).

Test system: rAAV8-1.3HBV
Assay: AAV/HBV mouse model experiment (serum HBV DNA)
Format: in vivo, mouse (male, C57BL/6)
Details: mean ± standard error; for HBV DNA in mouse serum, day 7 / HBV DNA in mouse serum, day 14 / HBV DNA in mouse serum, day 21 / HBV DNA in mouse serum, day 28: i.g. QD day 0-27; for HBV DNA in mouse serum, day −2: day −2 (before first administration)
Method: rAAV8-1.3HBV (source: Beijing FivePlus Molecular Medicine Institute, titer: 1×10^12 v·g/mL) was used to establish an AAV/HBV mouse model (species: male, C57BL/6), and the mice were randomized into groups.
The compound of formula I was dissolved in DMSO, and PEG-400 was added to prepare a 1 mg/mL clear solution, which was then gradually diluted with the vehicle to 0.3 mg/mL, 0.1 mg/mL, and 0.03 mg/mL. After preparation, the dilutions were stored at room temperature.
Entecavir was dissolved in DMSO to prepare a 1 mg/mL solution, which was then gradually 1000-fold diluted with normal saline (NS) to 0.001 mg/mL. The dilution was aliquoted at 1 mL/tube to serve as a stock solution and stored in a freezer at −20° C. Each day, one tube was taken, and the solution in the tube was 10-fold diluted with NS to achieve the required administration concentration of 0.0001 mg/mL for daily administration.
rAAV8-1.3HBV (type D, ayw) was purchased from Beijing FivePlus Gene Technology Co., Ltd., with a titer of 1×10^12 v·g/mL.
Hepatitis B virus nucleic acid assay kit (Sansure Biotech Inc.), high-speed refrigerated centrifuge (Sorvall Legend), and real-time fluorescent quantitative PCR instrument (TL988).
AAV-HBV mouse model: rAAV8-1.3HBV was prepared into a solution with a concentration of 5×10^11 v·g/mL by sterile PBS in advance before injection. Each mouse was injected with 200 μL of the solution via the tail vein, with 1×10^11 v·g per mouse.
Blood sampling before grouping: On day 14 after the virus injection, all infected mice were subjected to blood sampling (approximately 100 μL per mouse) via the orbital vein for serum collection. After the whole blood was left to stand at room temperature for 30 min, serum was collected by centrifugation at 3000 rpm at 4° C. for 10 min. The collected serum was stored at −80° C. for HBV DNA, HBeAg and HBsAg detection.
Compound treatment: All mice were subjected to intragastric administration with the solvent or the compound. The day of the first administration was set as day 0 of the experiment, and the duration of administration was from day 0 to day 27. Entecavir was administered once daily (QD), and the compound of formula I was administered […]. The administration volume was 10 mL/kg.
The experimental method referred to the instructions of the hepatitis B virus nucleic acid assay kit. 5 μL of the nucleic acid release agent was added into each PCR reaction tube, and then 5 μL of the test serum, a negative control, a positive control and a quantitative reference substance were added separately. The mixture was then lysed for 10 min, and then 40 μL of PCR-mix was added, achieving a total volume of 50 μL in the system. Reaction conditions: 50° C. for 2 min, 1 cycle; 94° C. for 5 min, 1 cycle; 94° C. for 15 s, 57° C. for 30 s, 45 cycles; 25° C. for 10 s, 1 cycle. 2.4. Results in Tables 4-1 and 4-2

[1] = compound of formula I 10 mg/kg (iv), with entecavir 0.001 mg/kg (vi)
[2] = entecavir 0.001 mg/kg (ii), compound of formula I 1 mg/kg (iii), both (v)
[3] = groups: entecavir 0.001 mg/kg (ii), compound of formula I 1 mg/kg (iii), both (v)

SMILES: Cc1c(C(=O)Nc2ccc(F)c(C#N)c2)c(C)n(C)c1C(=O)C(=O)N[C@@H](C)C(F)(F)F [Compound of formula I, (S)—N-(3-cyano-4-fluorophenyl)-1,2,4-trimethyl-5-(2-oxo-2-((1,1,1-trifluoropropan-2-yl)amino)acetyl)-1H-pyrrole-3-carboxamide]
- HBV DNA in mouse serum, day 7 [1]: 4.72 ± 0.86 log10, copy/μL
- HBV DNA in mouse serum, day 7 [2]: 6.16 ± 0.36 log10, copy/μL
- HBV DNA in mouse serum, day 14 [1]: 3.97 ± 0.45 log10, copy/μL
- HBV DNA in mouse serum, day 14 [2]: 5.48 ± 0.34 log10, copy/μL
- HBV DNA in mouse serum, day 21 [1]: 3.97 ± 0.31 log10, copy/μL
- HBV DNA in mouse serum, day 21 [2]: 5.23 ± 0.33 log10, copy/μL
- HBV DNA in mouse serum, day 28 [1]: 3.75 ± 0.35 log10, copy/μL
- HBV DNA in mouse serum, day 28 [2]: 5.42 ± 0.38 log10, copy/μL
- HBV DNA in mouse serum, day 35 (day 35 (administration ended day 27), compound of formula I 10 mg/kg (iv), with entecavir 0.001 mg/kg (vi)): 3.77 ± 0.45 log10, copy/μL
- HBV DNA in mouse serum, day 42 (day 42 (administration ended day 27), compound of formula I 10 mg/kg (iv), with entecavir 0.001 mg/kg (vi)): 5.18 ± 0.74 log10, copy/μL
- HBV DNA in mouse serum, day −2 (groups: compound of formula I 10 mg/kg (iv), with entecavir 0.001 mg/kg (vi)): 7.97 ± 0.22 log10, copy/μL
- HBV DNA in mouse serum, day −2 [3]: 7.71 ± 0.27 log10, copy/μL

SMILES: C=C1[C@H](CO)[C@@H](O)C[C@@H]1n1cnc2c(=O)[nH]c(N)nc21 [Entecavir, 2-amino-9-[(1S,3R,4S)-4-hydroxy-3-hydroxymethyl-2-methylenecyclopentyl]-1,9-dihydro-6H-purin-6-one, reference compound]
- HBV DNA in mouse serum, day 7 [2]: 5.17 ± 0.54 log10, copy/μL
- HBV DNA in mouse serum, day 14 [2]: 5.30 ± 0.30 log10, copy/μL
- HBV DNA in mouse serum, day 21 [2]: 5.22 ± 0.46 log10, copy/μL
- HBV DNA in mouse serum, day 28 [2]: 5.46 ± 0.45 log10, copy/μL
- HBV DNA in mouse serum, day −2 [3]: 7.78 ± 0.28 log10, copy/μL
